Experimental data: publication PMC7865522, “Analyzing Kinase Similarity in Small Molecule and Protein Structural Space to Explore the Limits of Multi-Target Screening” (Molecules, 2021)

How the values were obtained:
[1] = target: T1, ErbB2 (Homo sapiens, UniProt P04626); assay: Eurofins in vitro kinase inhibition assay; type: biochemical; settings: compound 20 µM; mean (SD); above 50% significant, 25-50% weak
T1 construct: purchased DiscoverX (KINOMEscan service); host or cells: E. coli BL21-derived host (T7 phage) or HEK-293
Procedure: (§1) Kinase inhibition assays for EGFR, ErbB2, PI3K and BRAF were carried out by Eurofins Cerep following the protocols of Weber et al. (EGFR), Quian et al. (ErbB2), Sinnamon et al. (PI3K) and Kupcho et al. (BRAF). Briefly, except for PI3K, compounds were incubated with the respective kinase, ATP, and a substrate analog, and the effect of each compound on phosphorylation was measured. In the case of PI3K, the displacement of biotinylated PIP3 from a PIP3-binding complex by unlabelled PIP3 (produced from PIP2 by PI3K) was measured by Homogeneous Time Resolved Fluorescence (HTRF).
(§2) Finally, inhibition of the respective kinases is calculated as the percentage inhibition of control activity.
(§3) Table S3. Experimental results from the Euroﬁns assay. Inhibition of four kinases (EGFR, PI3K, ErbB2, BRAF) was measured at compound concentrations of 20 µM. Inhibition was calculated as % inhibition of control activity. According to CRO, values above 50% inhibition represent signiﬁcant inhibition, values above 25% weak inhibition effect and values below 25% as well as negative values are usually not signiﬁcant. Results are reported in mean (SD) format. […]
(§4) a Compound interfered with assay readout.

[2] = target: T2, BRAF (Homo sapiens, UniProt P15056); assay: Eurofins in vitro kinase inhibition assay; type: biochemical; settings: compound 20 µM; mean (SD); above 50% significant, 25-50% weak
T2 construct: purchased DiscoverX (KINOMEscan service); host or cells: E. coli BL21-derived host (T7 phage) or HEK-293
Procedure: as §1, §2, §3, §4

[3] = target: T3, EGFR (Homo sapiens, UniProt P00533); assay: Eurofins in vitro kinase inhibition assay; type: biochemical; settings: compound 20 µM; mean (SD); above 50% significant, 25-50% weak
T3 construct: purchased DiscoverX (KINOMEscan service); host or cells: E. coli BL21-derived host (T7 phage) or HEK-293
Procedure: as §1, §2, §3, §4

[4] = target: T4, PI3K (Homo sapiens, UniProt P42336); assay: DiscoverX KINOMEscan competition binding assay; parameters: purchased DiscoverX (KINOMEscan service); host or cells: E. coli BL21-derived host (T7 phage) or HEK-293; settings: compound 10 µM; lower values = higher affinity; below 35% = significant binding
Procedure: (§5) Ligand binding experiments for the molecules selected from Profiles 1 and 2 towards nine kinases (EGFR, ErbB2, LCK, CDK2, BRAF, MET, p38α, PI3K and VEGFR2) and for molecules selected from Profiles 3 and 4 towards four kinases (EGFR, ErbB2, BRAF and VEGFR2) were carried out by DiscoverX using the supplied protocol as described in the Supplementary Materials. Briefly, ligand affinity was measured by competition with a resin-bound standard ligand and washed-off kinase concentration was determined via qPCR.
(§6) Summarizing, binding of a compound to a kinase was tested in comparison to a control compound (see Table S2). […]
(§7) 1.1. DiscoverX kinase assay
(§8) For most assays, kinase-tagged T7 phage strains were grown in parallel in 24-well blocks in an E.coli host derived from the BL21 strain. E.coli were grown to log-phase and infected with T7 phage from a frozen stock (multiplicity of infection = 0.4) and incubated with shaking at 32°C until lysis (90-150 minutes). The lysates were centrifuged (6,000 x g) and ﬁltered (0.2µm) to remove cell debris.
(§9) The remaining kinases were produced in HEK-293 cells and subsequently tagged with DNA for qPCR detection. Streptavidin-coated magnetic beads were treated with biotinylated small molecule ligands for 30 minutes at room temperature to generate afﬁnity resins for the kinases. The liganded beads were blocked with excess biotin and washed with blocking buffer (SeaBlock [Pierce], 1% BSA, 0.05% Tween 20, 1 mM DTT) to remove unbound ligands and to reduce non-speciﬁc phage binding. Binding reactions were assembled by combining kinases, liganded afﬁnity beads, and test compounds in 1x binding buffer (20% SeaBlock, 0.17x PBS, 0.05% Tween 20, 6 mM DTT). Test compounds were prepared as 40x stocks in 100% DMSO and directly diluted into the assay. All reactions were performed in polypropylene 384-well plates in a ﬁnal volume of 0.02 ml. The assay plates were incubated at room temperature with shaking for 1 hour and the afﬁnity beads were washed with wash buffer (1x PBS, 0.05% Tween 20). The beads were then re-suspended in elution buffer (1x PBS, 0.05% Tween 20, 0.5 µM non-biotinylated afﬁnity ligand) and incubated at room temperature with shaking for 30 minutes. The kinase concentration in the eluates was measured by qPCR. […]
(§10) Table S2. Experimental % control values from the DiscoverX kinase assay. Compounds were tested against the nine kinases EGFR, ErbB2, LCK, CDK2, BRAF, MET, p38α, PI3K and VEGFR2, unless otherwise stated. Binding of kinase and compound were tested at a compound concentration of 10 µM and in comparison to a control compound. Lower values indicate a higher afﬁnity of the compound to the protein and values below 35% indicate signiﬁcant binding according to information of the CRO. […]
(§11) a Compounds were only tested against four kinases (EGFR, ErbB2, BRAF and VEGFR2). b Compound was selected independently from two docking proﬁles and tested separately during
Target sequence in this assay (P42336 whole entry): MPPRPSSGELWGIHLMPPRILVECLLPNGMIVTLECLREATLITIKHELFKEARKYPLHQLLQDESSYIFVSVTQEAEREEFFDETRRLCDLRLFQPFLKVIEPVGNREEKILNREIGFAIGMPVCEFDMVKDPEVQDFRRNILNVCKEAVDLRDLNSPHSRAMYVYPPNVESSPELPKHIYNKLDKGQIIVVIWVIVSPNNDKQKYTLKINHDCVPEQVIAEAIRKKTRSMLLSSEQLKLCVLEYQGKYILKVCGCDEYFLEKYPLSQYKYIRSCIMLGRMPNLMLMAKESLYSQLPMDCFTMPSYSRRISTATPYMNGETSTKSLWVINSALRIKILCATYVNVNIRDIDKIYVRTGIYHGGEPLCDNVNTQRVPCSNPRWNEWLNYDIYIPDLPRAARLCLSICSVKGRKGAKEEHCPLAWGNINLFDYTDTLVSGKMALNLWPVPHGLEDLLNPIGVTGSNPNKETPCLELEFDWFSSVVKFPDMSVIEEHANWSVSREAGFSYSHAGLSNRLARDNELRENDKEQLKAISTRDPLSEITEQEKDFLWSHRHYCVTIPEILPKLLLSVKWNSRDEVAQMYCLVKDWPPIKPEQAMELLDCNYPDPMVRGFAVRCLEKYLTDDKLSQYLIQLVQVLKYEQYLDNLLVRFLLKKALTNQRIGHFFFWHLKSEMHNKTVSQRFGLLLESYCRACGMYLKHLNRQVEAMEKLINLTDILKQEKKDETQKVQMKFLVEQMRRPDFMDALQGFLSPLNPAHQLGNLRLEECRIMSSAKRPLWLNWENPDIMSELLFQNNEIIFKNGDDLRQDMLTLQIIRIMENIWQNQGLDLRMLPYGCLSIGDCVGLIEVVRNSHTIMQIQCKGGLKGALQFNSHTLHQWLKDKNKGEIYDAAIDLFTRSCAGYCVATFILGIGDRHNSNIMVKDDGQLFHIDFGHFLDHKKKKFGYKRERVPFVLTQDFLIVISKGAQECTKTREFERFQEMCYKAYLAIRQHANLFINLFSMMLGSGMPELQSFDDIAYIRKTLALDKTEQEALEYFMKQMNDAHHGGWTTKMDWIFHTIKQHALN

[5] = target: T5, p38α (Homo sapiens, UniProt Q16539); assay: DiscoverX KINOMEscan competition binding assay; settings: compound 10 µM; lower values = higher affinity; below 35% = significant binding
T5 construct: purchased DiscoverX (KINOMEscan service); host or cells: E. coli BL21-derived host (T7 phage) or HEK-293
Procedure: as §5, §6, §7, §8, §9, §10, §11

[6] = target: T1, ErbB2; assay: DiscoverX KINOMEscan competition binding assay; settings: compound 10 µM, lower values = higher affinity, below 35% = significant binding
Procedure: as §5, §6, §7, §8, §9, §10, §11

[7] = target: T2, BRAF; assay: DiscoverX KINOMEscan competition binding assay; settings: compound 10 µM, lower values = higher affinity, below 35% = significant binding
Procedure: as §5, §6, §7, §8, §9, §10, §11

[8] = target: T6, VEGFR2 (Homo sapiens, UniProt P35968); assay: DiscoverX KINOMEscan competition binding assay; settings: compound 10 µM, lower values = higher affinity, below 35% = significant binding
T6 construct: purchased DiscoverX (KINOMEscan service); host or cells: E. coli BL21-derived host (T7 phage) or HEK-293
Procedure: as §5, §6, §7, §8, §9, §10, §11

[9] = target: T7, CDK2 (Homo sapiens, UniProt P24941); assay: DiscoverX KINOMEscan competition binding assay; settings: compound 10 µM; lower values = higher affinity; below 35% = significant binding
T7 construct: purchased DiscoverX (KINOMEscan service); host or cells: E. coli BL21-derived host (T7 phage) or HEK-293
Procedure: as §5, §6, §7, §8, §9, §10, §11

[10] = target: T8, MET (Homo sapiens, UniProt P08581); assay: DiscoverX KINOMEscan competition binding assay; settings: compound 10 µM; lower values = higher affinity; below 35% = significant binding
T8 construct: purchased DiscoverX (KINOMEscan service); host or cells: E. coli BL21-derived host (T7 phage) or HEK-293
Procedure: as §5, §6, §7, §8, §9, §10, §11

[11] = target: T9, LCK (Homo sapiens, UniProt P06239); assay: DiscoverX KINOMEscan competition binding assay; settings: compound 10 µM; lower values = higher affinity; below 35% = significant binding
T9 construct: purchased DiscoverX (KINOMEscan service); host or cells: E. coli BL21-derived host (T7 phage) or HEK-293
Procedure: as §5, §6, §7, §8, §9, §10, §11

[12] = target: T3, EGFR; assay: DiscoverX KINOMEscan competition binding assay; settings: compound 10 µM; lower values = higher affinity; below 35% = significant binding
Procedure: as §5, §6, §7, §8, §9, §10, §11

[13] = target: T4, PI3K; assay: Eurofins in vitro kinase inhibition assay (HTRF, PIP3 displacement); type: biochemical; parameters: purchased Eurofins Cerep (contract assay); settings: compound 20 µM; mean (SD); above 50% significant, 25-50% weak
Procedure: as §1, §2, §3, §4

T8 sequence (P08581 25-1390): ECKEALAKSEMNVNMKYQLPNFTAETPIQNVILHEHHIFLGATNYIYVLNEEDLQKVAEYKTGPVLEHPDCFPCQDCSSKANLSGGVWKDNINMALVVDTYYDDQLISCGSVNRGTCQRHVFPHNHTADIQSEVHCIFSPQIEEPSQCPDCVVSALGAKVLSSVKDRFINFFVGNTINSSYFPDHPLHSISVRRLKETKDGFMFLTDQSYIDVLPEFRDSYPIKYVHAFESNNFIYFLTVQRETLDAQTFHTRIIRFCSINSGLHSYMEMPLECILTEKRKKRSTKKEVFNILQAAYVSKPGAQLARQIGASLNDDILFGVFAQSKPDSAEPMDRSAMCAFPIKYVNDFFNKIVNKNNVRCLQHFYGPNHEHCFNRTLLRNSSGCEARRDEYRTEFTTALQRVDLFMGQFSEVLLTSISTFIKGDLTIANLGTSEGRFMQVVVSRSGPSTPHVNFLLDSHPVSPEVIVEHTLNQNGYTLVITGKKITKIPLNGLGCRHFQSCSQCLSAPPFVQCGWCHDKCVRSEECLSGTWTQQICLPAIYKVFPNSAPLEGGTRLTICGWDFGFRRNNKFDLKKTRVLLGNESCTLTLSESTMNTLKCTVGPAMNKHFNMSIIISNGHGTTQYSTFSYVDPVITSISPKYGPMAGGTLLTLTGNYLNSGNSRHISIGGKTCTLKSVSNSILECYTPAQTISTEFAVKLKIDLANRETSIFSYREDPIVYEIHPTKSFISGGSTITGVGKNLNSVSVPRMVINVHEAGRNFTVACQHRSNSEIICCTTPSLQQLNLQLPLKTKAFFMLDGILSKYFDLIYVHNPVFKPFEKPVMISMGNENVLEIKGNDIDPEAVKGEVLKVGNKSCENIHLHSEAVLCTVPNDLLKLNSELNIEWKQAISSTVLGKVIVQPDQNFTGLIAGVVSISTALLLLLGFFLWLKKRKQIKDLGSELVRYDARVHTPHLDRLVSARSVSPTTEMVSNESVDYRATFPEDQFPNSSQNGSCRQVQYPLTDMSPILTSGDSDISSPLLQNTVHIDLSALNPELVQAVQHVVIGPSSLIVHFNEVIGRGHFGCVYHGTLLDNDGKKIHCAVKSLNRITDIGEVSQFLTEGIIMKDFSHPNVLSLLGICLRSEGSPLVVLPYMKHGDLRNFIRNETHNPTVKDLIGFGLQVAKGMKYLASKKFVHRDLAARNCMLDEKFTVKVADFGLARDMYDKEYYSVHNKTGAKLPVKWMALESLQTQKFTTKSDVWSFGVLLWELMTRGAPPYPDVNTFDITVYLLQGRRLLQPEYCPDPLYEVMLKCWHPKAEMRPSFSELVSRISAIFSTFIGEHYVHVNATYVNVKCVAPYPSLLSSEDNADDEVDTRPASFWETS
T1 sequence (P04626 23-1255): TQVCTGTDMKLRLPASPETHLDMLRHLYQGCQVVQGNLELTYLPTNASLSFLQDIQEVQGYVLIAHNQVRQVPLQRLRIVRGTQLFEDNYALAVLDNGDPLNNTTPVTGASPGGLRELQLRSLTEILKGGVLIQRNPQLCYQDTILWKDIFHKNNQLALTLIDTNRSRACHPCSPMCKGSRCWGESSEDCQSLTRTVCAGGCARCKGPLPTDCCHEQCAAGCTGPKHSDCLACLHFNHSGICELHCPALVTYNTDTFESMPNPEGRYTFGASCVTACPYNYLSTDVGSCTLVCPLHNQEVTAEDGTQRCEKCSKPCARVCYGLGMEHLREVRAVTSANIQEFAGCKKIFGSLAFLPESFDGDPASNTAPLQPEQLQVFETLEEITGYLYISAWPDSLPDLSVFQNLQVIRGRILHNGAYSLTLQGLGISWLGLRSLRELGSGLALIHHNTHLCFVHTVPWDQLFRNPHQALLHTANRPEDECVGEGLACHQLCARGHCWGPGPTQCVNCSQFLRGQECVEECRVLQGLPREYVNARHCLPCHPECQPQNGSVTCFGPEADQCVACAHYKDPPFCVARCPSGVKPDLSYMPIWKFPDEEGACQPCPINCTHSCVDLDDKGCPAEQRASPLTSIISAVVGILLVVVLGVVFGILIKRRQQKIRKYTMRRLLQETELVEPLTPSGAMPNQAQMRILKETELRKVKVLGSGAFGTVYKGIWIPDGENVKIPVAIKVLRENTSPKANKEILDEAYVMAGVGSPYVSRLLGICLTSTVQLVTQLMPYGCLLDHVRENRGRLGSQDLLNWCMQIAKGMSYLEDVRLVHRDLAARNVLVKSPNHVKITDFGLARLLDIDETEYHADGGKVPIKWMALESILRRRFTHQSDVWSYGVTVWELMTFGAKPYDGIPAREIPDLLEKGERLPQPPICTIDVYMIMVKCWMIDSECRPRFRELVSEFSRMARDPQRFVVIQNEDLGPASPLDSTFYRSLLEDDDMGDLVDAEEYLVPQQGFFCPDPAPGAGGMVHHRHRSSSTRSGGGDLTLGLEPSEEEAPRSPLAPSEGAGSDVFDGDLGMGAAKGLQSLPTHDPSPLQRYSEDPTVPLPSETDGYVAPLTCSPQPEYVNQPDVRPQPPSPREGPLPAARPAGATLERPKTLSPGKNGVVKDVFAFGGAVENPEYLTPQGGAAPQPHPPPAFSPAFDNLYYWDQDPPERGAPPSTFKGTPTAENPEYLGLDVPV
T9 sequence (P06239 whole entry): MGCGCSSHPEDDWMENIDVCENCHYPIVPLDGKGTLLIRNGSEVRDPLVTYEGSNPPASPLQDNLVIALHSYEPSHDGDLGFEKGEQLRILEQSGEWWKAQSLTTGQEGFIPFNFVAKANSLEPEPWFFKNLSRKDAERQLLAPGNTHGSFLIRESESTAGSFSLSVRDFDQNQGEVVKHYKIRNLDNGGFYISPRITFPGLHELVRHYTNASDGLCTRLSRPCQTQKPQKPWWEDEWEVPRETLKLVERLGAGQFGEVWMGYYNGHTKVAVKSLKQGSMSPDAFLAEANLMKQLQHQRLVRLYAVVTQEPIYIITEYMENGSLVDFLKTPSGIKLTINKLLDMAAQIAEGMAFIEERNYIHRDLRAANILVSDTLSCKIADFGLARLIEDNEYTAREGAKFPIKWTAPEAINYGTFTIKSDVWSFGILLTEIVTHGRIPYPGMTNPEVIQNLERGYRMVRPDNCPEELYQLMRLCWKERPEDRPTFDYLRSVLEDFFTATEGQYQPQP
T5 sequence (Q16539 whole entry): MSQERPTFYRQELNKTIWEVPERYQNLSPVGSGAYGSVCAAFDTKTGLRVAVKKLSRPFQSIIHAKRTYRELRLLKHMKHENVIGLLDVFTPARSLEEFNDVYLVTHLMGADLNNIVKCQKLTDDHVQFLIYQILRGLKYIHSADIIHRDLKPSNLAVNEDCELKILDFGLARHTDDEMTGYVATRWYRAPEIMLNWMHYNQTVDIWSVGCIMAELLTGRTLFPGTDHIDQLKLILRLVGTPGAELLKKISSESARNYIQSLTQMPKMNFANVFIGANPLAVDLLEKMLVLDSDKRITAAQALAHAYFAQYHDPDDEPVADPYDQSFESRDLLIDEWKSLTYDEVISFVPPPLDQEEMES

| Structure (SMILES) | % inhibition of control activity, ErbB2 (Eurofins) [1] | % inhibition of control activity, BRAF (Eurofins) [2] | % inhibition of control activity, EGFR (Eurofins) [3] | % control, PI3K (DiscoverX) [4] | % control, p38α (DiscoverX) [5] | % control, ErbB2 (DiscoverX) [6] | % control, BRAF (DiscoverX) [7] | % control, VEGFR2 (DiscoverX) [8] | % control, CDK2 (DiscoverX) [9] | % control, MET (DiscoverX) [10] | % control, LCK (DiscoverX) [11] | % control, EGFR (DiscoverX) [12] | % inhibition of control activity, PI3K (Eurofins) [13] | % control, ErbB2 (DiscoverX) ([6]; listed as K001MM009) | % control, BRAF (DiscoverX) ([7]; listed as K001MM009) | % control, VEGFR2 (DiscoverX) ([8]; listed as K001MM009) |
| --- | --- | --- | --- | --- | --- | --- | --- | --- | --- | --- | --- | --- | --- | --- | --- | --- |
| CN(C)S(=O)(=O)c1cccc(C2=N/C(=C\c3cccc(F)c3)C(=O)O2)c1 [DS74631] | -4.6 (2.9) % inhibition | -22.8 (15.9) % inhibition | 11.3 (4.5) % inhibition | 100 % control | 83 % control | 95 % control | 100 % control | 100 % control | 100 % control | 100 % control | 87 % control | 97 % control | 20 (5.2) % inhibition | – | – | – |
| Cc1cc(=O)n2nc(N(C)CC(=O)NCc3cccs3)sc2n1 [DS72975] | 9.8 (21.9) % inhibition | -12.4 (1.8) % inhibition | 19.8 (5.0) % inhibition | 100 % control | 100 % control | 87 % control | 100 % control | 99 % control | 100 % control | 78 % control | 100 % control | 96 % control | -1.1 (2.1) % inhibition | – | – | – |
| COc1ccc(-c2nn(C(C)=O)c3c2C(=O)CC(C)(C)C3)cc1 [DS18339] | 0.7 (1.1) % inhibition | -21.8 (9.5) % inhibition | 15.3 (7.7) % inhibition | 100 % control | 99 % control | 100 % control | 100 % control | 97 % control | 100 % control | 100 % control | 89 % control | 97 % control | -3.7 (0.3) % inhibition | – | – | – |
| O=C(Oc1ccc2c3c(c(=O)oc2c1)CCC3)c1cccc(Cl)c1 [DS76514] | -0.6 (1.0) % inhibition | -33.6 (18.1) % inhibition | 3.2 (10.7) % inhibition | 100 % control | 97 % control | 96 % control | 89 % control | 100 % control | 100 % control | 90 % control | 100 % control | 87 % control | 17.4 (0.4) % inhibition | – | – | – |
| Cc1ccc(-n2cnnn2)cc1NC(=O)NCC1CC1 [DS44738] | 10.5 (23.6) % inhibition | -20.8 (0.4) % inhibition | 4.4 (14.0) % inhibition | 94 % control | 100 % control | 91 % control | 100 % control | 100 % control | 100 % control | 84 % control | 100 % control | 100 % control | 0.4 (1.7) % inhibition | 98 % control | 96 % control | 98 % control |
| CCc1nnc(NC(=O)c2nn(-c3ccc(C)cc3)ccc2=O)s1 [DS59212] | 5.8 (0.2) % inhibition | -22.9 (4.9) % inhibition | 7.8 (3.3) % inhibition | 87 % control | 99 % control | 100 % control | 100 % control | 100 % control | 100 % control | 97 % control | 100 % control | 100 % control | 0.2 (3.6) % inhibition | – | – | – |
